In ChEMBL document CHEMBL1146385, “Discovery of novel phenoxyacetic acid derivatives as antimycobacterial agents” (2007) one finds MIC data, which are given here for 22 compounds.

SMILES strings stand for the structures. Converted amounts (≈) assume the structure as drawn.

This experiment relates to Mycobacterium tuberculosis. Nature of the experiment: Antimycobacterial activity against isoniazid-resistant Mycobacterium tuberculosis by broth dilution assay. The class given is functional.

Regarding `COc1cc(C2=NN(C(N)=S)C(Cc3ccccc3)C2)ccc1OCC(=O)O` (configuration not stated), the lowest concentration to inhibit growth (MIC) was 6.25 µg/mL (≈ 15.6 µM). The value for `COc1cc(C2=NN(C(N)=S)C(c3ccccc3O)C2)ccc1OCC(=O)O` (configuration not stated) was 0.58 µg/mL (≈ 1.44 µM); that for `COc1cc(C2=NN(C(N)=O)C(c3ccccc3)C2)ccc1OCC(=O)O` (configuration not stated) was 6.12 µg/mL (≈ 16.6 µM).

As for `COc1cc(C2=NN(C(N)=O)C(c3ccc(C)cc3)C2)ccc1OCC(=O)O` (configuration not stated), inhibition of growth (MIC) required 6.25 µg/mL (≈ 16.3 µM). The value for `COc1cc(C2=NN(C(N)=S)C(c3ccc(O)cc3)C2)ccc1OCC(=O)O` (configuration not stated) was 0.2 µg/mL (≈ 0.498 µM); that for `COc1cc(C2=NN(C(N)=O)C(c3ccccc3Cl)C2)ccc1OCC(=O)O` (configuration not stated) was 1.26 µg/mL (≈ 3.12 µM); that for `COc1cc(C2=NN(C(N)=O)C(c3ccc(N)cc3)C2)ccc1OCC(=O)O` (configuration not stated) was 5.42 µg/mL (≈ 14.1 µM).

Turning to `COc1cc(C2=NN(C(N)=S)C(c3ccc(C)cc3)C2)ccc1OCC(=O)O` (configuration not stated), the lowest concentration to inhibit growth (MIC) was 6.15 µg/mL (≈ 15.4 µM).

Regarding `COc1cc(C2=NN(C(N)=S)C(c3ccc(Cl)cc3)C2)ccc1OCC(=O)O` (configuration not stated), it took 0.06 µg/mL (≈ 0.143 µM) to inhibit growth (MIC).

`COc1cc(C2=NN(C(N)=S)C(c3ccccc3Cl)C2)ccc1OCC(=O)O` (configuration not stated): the MIC (in general, the smallest concentration in the dilution series that meets the test's criterion for growth inhibition) was found to be 0.12 µg/mL (≈ 0.286 µM). `COc1cc(C2=NN(C(N)=O)C(c3ccc(F)cc3)C2)ccc1OCC(=O)O` (configuration not stated) displayed an MIC of 3.25 µg/mL (≈ 8.39 µM). Take `COc1cc(C2=NN(C(N)=O)C(c3ccc(Cl)cc3)C2)ccc1OCC(=O)O` (configuration not stated): 0.13 µg/mL (≈ 0.322 µM) was the least that counted as inhibitory (MIC). Consider `COc1cc(C2=NN(C(N)=O)C(Cc3ccccc3)C2)ccc1OCC(=O)O` (configuration not stated), for which the MIC was found to be 6.25 µg/mL (≈ 16.3 µM). To `COc1cc(C2=NN(C(N)=S)C(c3ccc(N)cc3)C2)ccc1OCC(=O)O` (configuration not stated) belongs 12.5 µg/mL (≈ 31.2 µM); to `COc1cc(C2=NN(C(N)=S)C(c3cccc([N+](=O)[O-])c3)C2)ccc1OCC(=O)O` (configuration not stated), 3.12 µg/mL (≈ 7.25 µM); to `COc1cc(C2=NN(C(N)=S)C(c3ccccc3)C2)ccc1OCC(=O)O` (configuration not stated), 6.25 µg/mL (≈ 16.2 µM). `COc1cc(C2=NN(C(N)=O)C(c3ccccc3O)C2)ccc1OCC(=O)O` (configuration not stated) yielded an MIC of 0.58 µg/mL (≈ 1.51 µM).

Compound `COc1cc(C2=NN(C(N)=O)C(c3cccc([N+](=O)[O-])c3)C2)ccc1OCC(=O)O` (configuration not stated) registered an MIC of 6.25 µg/mL (≈ 15.1 µM). The value for `COc1cc(C2=NN(C(N)=S)C(c3ccc(F)cc3)C2)ccc1OCC(=O)O` (configuration not stated) was 0.96 µg/mL (≈ 2.38 µM). The compound `COc1cc(C2=NN(C(N)=O)C(c3ccc(O)cc3)C2)ccc1OCC(=O)O` (configuration not stated) displayed an MIC of 1.23 µg/mL (≈ 3.19 µM).

Consider `COc1cc(C2=NN(C(N)=O)C(c3ccc([N+](=O)[O-])cc3)C2)ccc1OCC(=O)O` (configuration not stated), for which the MIC was 6.25 µg/mL (≈ 15.1 µM). To `COc1cc(C2=NN(C(N)=S)C(c3ccc([N+](=O)[O-])cc3)C2)ccc1OCC(=O)O` (configuration not stated) belongs 6.25 µg/mL (≈ 14.5 µM).
